Data as given in patent publication US9511064B2, “Combination therapy for the treatment of cancer and immunosuppression” (Basilea Pharmaceutica AG, priority 2012, dated 2016).
Like-named read-outs stand apart in the source and are kept apart here.

Assays:
Format in all cases: cell-based
[1] = tested on: HL60 tumor cells and the mouse mast cell line 6.5; assay: AlamarBlue conversion cell proliferation assay, general statements without cell line; settings: metformin alone at 4 mM
HL60 tumor cells = assay: AlamarBlue conversion cell proliferation assay, HL60 cell line
Procedure: (§1) The in vitro anti-proliferative activity of compounds of formula (I), metformin and combinations thereof is tested in an AlamarBlue conversion cell proliferation assay (Promega) on HL60 tumor cells and the mouse mast cell line 6.5 (Colombi et al., Oncogene 2011, 30:1551-65). Cells are seeded into 96-well microtiter plates (seeding cell density is 7,000 cells per well in 150 uL Iscove's medium) and test compounds are added (compounds of formula (I) are added from a 10 mM stock solution in DMSO, metformin from a freshly prepared 1 M solution in culture medium). Plates are incubated for 3 days at 37°, 5% CO2 and proliferation is determined by AlamarBlue staining (0.1 vol % added to cultures and incubated for further 4-5 hours). The conversion of AlamarBlue is proportional to live cell number and is read with a fluorescence plate reader (Ex/Em 535/595 nm). Growth is normalized to the untreated controls.

mouse mast cell line 6.5 = assay: AlamarBlue conversion cell proliferation assay, 6.5 cell line
Procedure: as §1

[2] = combined with 4 mM metformin, 3 days incubation, read-out: concentration that inhibits the proliferation of cells by approximately 50% when combined with 4 mM metformin, HL60 cell line
[3] = combined with 4 mM metformin, 3 days incubation, read-out: concentration that inhibits the proliferation of cells by approximately 50% when combined with 4 mM metformin, 6.5 cell line

SMILES | anti-proliferative activity on its own [1] | IC50 (HL60 tumor cells; [2]) | IC50 (mouse mast cell line 6.5; [3]) | IC50 (HL60 tumor cells; read-out: concentration that inhibits the proliferation of cells by approximately 50% when combined with 4 mM metformin, HL60 cell line, 3 days incubation) | IC50 (mouse mast cell line 6.5; read-out: concentration that inhibits the proliferation of cells by approximately 50% when combined with 4 mM metformin, 6.5 cell line, 3 days incubation)
CN(C)C(=N)NC(=N)N [Metformin, 3-(diaminomethylidene)-1,1-dimethylguanidine] | do not show significant anti-proliferative activity |  |  |  | 
COC(=O)[C@H]1[C@H]2C[C@@H]3c4[nH]c5cc(OC)ccc5c4CCN3C[C@H]2C[C@@H](OC(=O)c2cc(OC)c(OC(=O)OCc3cc(OC)cc(OC)c3)c(OC)c2)[C@@H]1OC [Example 8, methyl (1R,15S,17R,18R,19S,20S)-17-{[4-({[(3,5-dimethoxyphenyl)methoxy]carbonyl}oxy)-3,5-dimethoxyphenyl]carbonyloxy}-6,18-dimethoxy-3,13-diazapentacyclo[11.8.0.0^2,10.0^4,9.0^15,20]henicosa-2(10),4,6,8-tetraene-19-carboxylate] |  | 4 µM | 5 µM |  | 
COC(=O)[C@H]1[C@H]2C[C@@H]3c4[nH]c5cc(OC)ccc5c4CCN3C[C@H]2C[C@@H](OC(=O)c2cc(OC)c(OC(=O)OCc3cccc4ccccc34)c(OC)c2)[C@@H]1OC [Example 34] |  | 5 µM | 7.5 µM |  | 
CCOC(=O)Oc1c(OC)cc(C(=O)O[C@@H]2C[C@@H]3CN4CCc5c([nH]c6cc(OC(=O)c7ccccc7)ccc56)[C@H]4C[C@@H]3[C@H](C(=O)OC)[C@H]2OC)cc1OC [Example 15, methyl (1R,15S,17R,18R,19S,20S)-6-(benzoyloxy)-17-({4-[(ethoxycarbonyl)oxy]-3,5-dimethoxyphenyl}carbonyloxy)-18-methoxy-3,13-diazapentacyclo[11.8.0.0^2,10.0^4,9.0^15,20]henicosa-2(10),4,6,8-tetraene-19-carboxylate] |  | 2 µM | 1.5 µM |  | 
COC(=O)[C@H]1[C@H]2C[C@@H]3c4[nH]c5cc(OC)ccc5c4CCN3C[C@H]2C[C@@H](OC(=O)c2cc(OC)c(OC(=O)OCc3cc(Cl)cc(Cl)c3)c(OC)c2)[C@@H]1OC [Example 10, methyl (1R,15S,17R,18R,19S,20S)-17-{[4-({[(3,5-dichlorophenyl)methoxy]carbonyl}oxy)-3,5-dimethoxyphenyl]carbonyloxy}-6,18-dimethoxy-3,13-diazapentacyclo[11.8.0.0^2,10.0^4,9.0^15,20]henicosa-2(10),4,6,8-tetraene-19-carboxylate] |  | 1 µM | 1 µM |  | 
COC(=O)[C@H]1[C@H]2C[C@@H]3c4[nH]c5cc(OC)ccc5c4CCN3C[C@H]2C[C@@H](OC(=O)c2cc(OC)c(OC(=O)OCc3cccc(Cl)c3)c(OC)c2)[C@@H]1OC [Example 35] |  | 2 µM | 2 µM |  | 
COC(=O)[C@H]1[C@H]2C[C@@H]3c4[nH]c5cc(OC)ccc5c4CCN3C[C@H]2C[C@@H](OC(=O)c2cc(OC)c(OC(=O)Cc3ccccc3)c(OC)c2)[C@@H]1OC [Example 20, methyl (1R,15S,17R,18R,19S,20S)-17-({3,5-dimethoxy-4-[(2-phenylacetyl)oxy]phenyl}carbonyloxy)-6,18-dimethoxy-3,13-diazapentacyclo[11.8.0.0^2,10.0^4,9.0^15,20]henicosa-2(10),4,6,8-tetraene-19-carboxylate] |  |  |  | 5 µM | 5 µM
